Source: patent publication US6476017B2, “Compounds activating pharmacological effect of retinoids” (Institute of Medicinal Molecular Design, Inc., priority 1995, dated 2002)

Tested on: promyelocytic leukemia cell strain HL-60
Assay: Cell differentiation inducing activity of retinoids on HL-60 in presence/absence of test compound (NBT reduction)
Format: cell-based
Description: The effects of the compounds of the above Examples 1 and 2 on cell differentiation induced by retinoids were studied. As retinoid compounds (i.e., agonists against the all-trans retinoic acid receptor), retinoic acid and Am80 (4-[(5,6,7,8-tetrahydro-5,5,8,8-tetramethyl-2-naphthalenyl)carbamoyl]benzoic acid) were used. Cell differentiation inducing activities of the above retinoids on promyelocytic leukemia cell strain HL-60 were measured in the presence and absence of the compounds of Examples 1 and 2 according to the method described in the Japanese Patent Unexamined Publication (KOKAI) No.(Sho)61-76440/1986. The degrees of the differentiation into granulocytic cell were determined by observing nuclear morphologies and measuring abilities to reduce nitroblue tetrazolium (NBT). This method is well known in the art as a test that enables accurate evaluation of the cell differentiation inducing activity of retinoids. The results are shown in the Table 2 set out below (in the table, NTB positive ratio represents a percent value of differentiated cells based on living cells).
Effect of the compound of Example 10 (HX801) on the cell differentiation inducing activity by a retinoid was examined. Am80 was used as the retinoid compound and the cell differentiation inducing activity of the above retinoid on promyelocytic leukemia cell strain HL-60 was determined in the presence or absence of the compound of HX801 in the same manner as Example 15. The results are shown in the Table 3 set out below (in the table, the symbol “-” indicates no addition).

## CC1(C)CCC(C)(C)c2cc(NC(=O)c3ccc(C(=O)O)cc3)ccc21 [Am80, 4-[(5,6,7,8-tetrahydro-5,5,8,8-tetramethyl-2-naphthalenyl)carbamoyl]benzoic acid, reference compound]
Am80 1.0 × 10^−8 M alone, test compound absent (HX600 series)
  NBT positive ratio: 55%
Am80 1.0 × 10^−8 M alone, test compound absent (LE135 series)
  NBT positive ratio: 55%
Am80 1.1 × 10^−9 M alone, test compound absent (HX600 series)
  NBT positive ratio: 44%
Am80 1.1 × 10^−9 M alone, test compound absent (LE135 series)
  NBT positive ratio: 35%
Am80 3.3 × 10^−9 M alone, test compound absent (HX600 series)
  NBT positive ratio: 53%
Am80 3.3 × 10^−9 M alone, test compound absent (LE135 series)
  NBT positive ratio: 51%
Am80 3.7 × 10^−10 M alone, test compound absent (HX600 series)
  NBT positive ratio: 15%
Am80 3.7 × 10^−10 M alone, test compound absent (LE135 series)
  NBT positive ratio: 21%
Table 3: Am80 1.0 × 10^−9 M alone, no HX801
  NBT positive ratio: 48%
Table 3: Am80 1.1 × 10^−10 M alone, no HX801
  NBT positive ratio: 5%
Table 3: Am80 1.2 × 10^−11 M alone, no HX801
  NBT positive ratio: 0.6%
Table 3: Am80 3.3 × 10^−10 M alone, no HX801
  NBT positive ratio: 30%
Table 3: Am80 3.7 × 10^−11 M alone, no HX801
  NBT positive ratio: 3%

## CN1c2ccccc2N=C(c2ccc(C(=O)O)cc2)c2cc3c(cc21)C(C)(C)CCC3(C)C [HX600, 4-[5H-2,3-(2,5-dimethyl-2,5-hexano)-5-methyldibenzo-[b,e][1,4]diazepine-11-yl]benzoic acid]
Am80 1.0 × 10^−8 M + test compound 1.0 × 10^−6 M (HX600 series)
  NBT positive ratio: 95%
Am80 1.0 × 10^−8 M + test compound 1.0 × 10^−7 M
  NBT positive ratio: 91%
Am80 1.0 × 10^−8 M + test compound 1.0 × 10^−8 M
  NBT positive ratio: 80%
Am80 1.0 × 10^−8 M + test compound 1.0 × 10^−9 M
  NBT positive ratio: 69%
Am80 1.1 × 10^−9 M + test compound 1.0 × 10^−6 M (HX600 series)
  NBT positive ratio: 93%
Am80 1.1 × 10^−9 M + test compound 1.0 × 10^−7 M
  NBT positive ratio: 90%
Am80 1.1 × 10^−9 M + test compound 1.0 × 10^−8 M
  NBT positive ratio: 65%
Am80 1.1 × 10^−9 M + test compound 1.0 × 10^−9 M
  NBT positive ratio: 48%
Am80 3.3 × 10^−9 M + test compound 1.0 × 10^−6 M (HX600 series)
  NBT positive ratio: 93%
Am80 3.3 × 10^−9 M + test compound 1.0 × 10^−7 M
  NBT positive ratio: 93%
Am80 3.3 × 10^−9 M + test compound 1.0 × 10^−8 M
  NBT positive ratio: 73%
Am80 3.3 × 10^−9 M + test compound 1.0 × 10^−9 M
  NBT positive ratio: 64%
Am80 3.7 × 10^−10 M + test compound 1.0 × 10^−6 M (HX600 series)
  NBT positive ratio: 67%
Am80 3.7 × 10^−10 M + test compound 1.0 × 10^−7 M
  NBT positive ratio: 72%
Am80 3.7 × 10^−10 M + test compound 1.0 × 10^−8 M
  NBT positive ratio: 41%
Am80 3.7 × 10^−10 M + test compound 1.0 × 10^−9 M
  NBT positive ratio: 21%
Retinoic acid 1.0 × 10^−8 M + test compound 1.0 × 10^−6 M
  NBT positive ratio: 91%
Retinoic acid 1.0 × 10^−8 M + test compound 1.1 × 10^−7 M
  NBT positive ratio: 91%
Retinoic acid 1.0 × 10^−8 M + test compound 3.3 × 10^−7 M
  NBT positive ratio: 91%
Retinoic acid 1.1 × 10^−9 M + test compound 1.0 × 10^−6 M
  NBT positive ratio: 69%
Retinoic acid 1.1 × 10^−9 M + test compound 1.1 × 10^−7 M
  NBT positive ratio: 68%
Retinoic acid 1.1 × 10^−9 M + test compound 3.3 × 10^−7 M
  NBT positive ratio: 76%
Retinoic acid 3.3 × 10^−9 M + test compound 1.0 × 10^−6 M
  NBT positive ratio: 90%
Retinoic acid 3.3 × 10^−9 M + test compound 1.1 × 10^−7 M
  NBT positive ratio: 86%
Retinoic acid 3.3 × 10^−9 M + test compound 3.3 × 10^−7 M
  NBT positive ratio: 90%

## CC1(C)CCC(C)(C)c2cc3c(cc21)Cc1ccccc1N=C3c1ccc(C(=O)O)cc1 [HX640, 4-[2,3-(2,5-dimethyl-2,5-hexano)-dibenzo[b,e]azepine-11-yl]benzoic acid]
Am80 1.1 × 10^−10 M + test compound 1.0 × 10^−7 M
  NBT positive ratio: 69%
Am80 1.1 × 10^−10 M + test compound 1.0 × 10^−8 M
  NBT positive ratio: 24%
Am80 1.1 × 10^−10 M + test compound 1.0 × 10^−9 M
  NBT positive ratio: 5%
Am80 1.1 × 10^−10 M + test compound 1.0 × 10^−10 M
  NBT positive ratio: 7%
Am80 3.3 × 10^−10 M + test compound 1.0 × 10^−6 M
  NBT positive ratio: 85%
Am80 3.3 × 10^−10 M + test compound 1.0 × 10^−7 M
  NBT positive ratio: 89%
Am80 3.3 × 10^−10 M + test compound 1.0 × 10^−8 M
  NBT positive ratio: 75%
Am80 3.3 × 10^−10 M + test compound 1.0 × 10^−9 M
  NBT positive ratio: 46%
Am80 3.3 × 10^−10 M + test compound 1.0 × 10^−10 M
  NBT positive ratio: 44%

## CN1C(=O)CN=C(c2ccc(C(=O)O)cc2)c2cc3c(cc21)C(C)(C)CCC3(C)C [HX801, 4-[1,3-dihydro-7,8-(2,5-dimethyl-2,5-hexano)-1-methyl-2-oxo-2H-1,4-benzodiazepine-5-yl]benzoic acid]
Table 3: Am80 1.0 × 10^−9 M + HX801 1.0 × 10^−6 M
  NBT positive ratio: 77%
Table 3: Am80 1.0 × 10^−9 M + HX801 1.1 × 10^−7 M
  NBT positive ratio: 63%
Table 3: Am80 1.0 × 10^−9 M + HX801 3.3 × 10^−7 M
  NBT positive ratio: 76%
Table 3: Am80 1.1 × 10^−10 M + HX801 1.0 × 10^−6 M
  NBT positive ratio: 48%
Table 3: Am80 1.1 × 10^−10 M + HX801 1.1 × 10^−7 M
  NBT positive ratio: 22%
Table 3: Am80 1.1 × 10^−10 M + HX801 3.3 × 10^−7 M
  NBT positive ratio: 28%
Table 3: Am80 1.2 × 10^−11 M + HX801 1.0 × 10^−6 M
  NBT positive ratio: 2%
Table 3: Am80 1.2 × 10^−11 M + HX801 1.1 × 10^−7 M
  NBT positive ratio: 1.4%
Table 3: Am80 1.2 × 10^−11 M + HX801 3.3 × 10^−7 M
  NBT positive ratio: 2%
Table 3: Am80 3.3 × 10^−10 M + HX801 1.0 × 10^−6 M
  NBT positive ratio: 71%
Table 3: Am80 3.3 × 10^−10 M + HX801 1.1 × 10^−7 M
  NBT positive ratio: 49%
Table 3: Am80 3.3 × 10^−10 M + HX801 3.3 × 10^−7 M
  NBT positive ratio: 55%
Table 3: Am80 3.7 × 10^−11 M + HX801 1.0 × 10^−6 M
  NBT positive ratio: 4.4%
Table 3: Am80 3.7 × 10^−11 M + HX801 1.1 × 10^−7 M
  NBT positive ratio: 4%
Table 3: Am80 3.7 × 10^−11 M + HX801 3.3 × 10^−7 M
  NBT positive ratio: 2.3%
Table 3: HX801 1.0 × 10^−6 M alone, no Am80
  NBT positive ratio: 1.1%
Table 3: HX801 1.1 × 10^−7 M alone, no Am80
  NBT positive ratio: 1.1%
Table 3: HX801 3.3 × 10^−7 M alone, no Am80
  NBT positive ratio: 0.3%

## CN1c2cc3c(cc2N=C(c2ccc(C(=O)O)cc2)c2ccccc21)C(C)(C)CCC3(C)C [LE135, 4-(5H-7,8,9,10-tetrahydro-5,7,7,10,10-pentamethylbenzo[e]naphto[2,3-b][1,4]diazepin-13-yl)benzoic acid, reference compound]
Am80 1.0 × 10^−8 M + test compound 1.0 × 10^−6 M (LE135 series)
  NBT positive ratio: 34%
Am80 1.0 × 10^−8 M + test compound 1.1 × 10^−7 M
  NBT positive ratio: 62%
Am80 1.0 × 10^−8 M + test compound 3.3 × 10^−7 M
  NBT positive ratio: 51%
Am80 1.1 × 10^−9 M + test compound 1.0 × 10^−6 M (LE135 series)
  NBT positive ratio: 2%
Am80 1.1 × 10^−9 M + test compound 1.1 × 10^−7 M
  NBT positive ratio: 23%
Am80 1.1 × 10^−9 M + test compound 3.3 × 10^−7 M
  NBT positive ratio: 5%
Am80 3.3 × 10^−9 M + test compound 1.0 × 10^−6 M (LE135 series)
  NBT positive ratio: 14%
Am80 3.3 × 10^−9 M + test compound 1.1 × 10^−7 M
  NBT positive ratio: 54%
Am80 3.3 × 10^−9 M + test compound 3.3 × 10^−7 M
  NBT positive ratio: 32%
Am80 3.7 × 10^−10 M + test compound 1.0 × 10^−6 M (LE135 series)
  NBT positive ratio: 1.3%
Am80 3.7 × 10^−10 M + test compound 1.1 × 10^−7 M
  NBT positive ratio: 3%
Am80 3.7 × 10^−10 M + test compound 3.3 × 10^−7 M
  NBT positive ratio: 1.2%
Compound coexisting with Am80
  cell differentiation inducing activity of Am80: significantly suppressed

## CC1=C(/C=C/C(C)=C/C=C/C(C)=C/C(=O)O)C(C)(C)CCC1 [Retinoic acid, retinoic acid, reference compound]
Retinoic acid 1.0 × 10^−8 M alone, test compound absent
  NBT positive ratio: 54%
Retinoic acid 1.1 × 10^−9 M alone, test compound absent
  NBT positive ratio: 14%
Retinoic acid 3.3 × 10^−9 M alone, test compound absent
  NBT positive ratio: 36%
